Results as given in US8143408B2, “N-(8-heteroaryltetrahydronaphtalene-2yl) or N-(5-heteroarylchromane-3-yl) carboxamide derivatives for the treatment of pain” (AstraZeneca AB, priority 2007, dated 2012).
pIC50: −log10 of the molar value.

These molecules were tested against T1, Nav1.7 voltage-gated sodium channel (Homo sapiens, UniProt Q15858) (assay: Whole-cell voltage clamp electrophysiology assay). Conditions: cells stably expressing the voltage-gated sodium channel of interest.
T1 construct: Gene(s) encoding the full-length protein of the voltage-gated sodium channel of interest are cloned and expressed; expressed in transfected cells
T1 sequence (Q15858 whole entry): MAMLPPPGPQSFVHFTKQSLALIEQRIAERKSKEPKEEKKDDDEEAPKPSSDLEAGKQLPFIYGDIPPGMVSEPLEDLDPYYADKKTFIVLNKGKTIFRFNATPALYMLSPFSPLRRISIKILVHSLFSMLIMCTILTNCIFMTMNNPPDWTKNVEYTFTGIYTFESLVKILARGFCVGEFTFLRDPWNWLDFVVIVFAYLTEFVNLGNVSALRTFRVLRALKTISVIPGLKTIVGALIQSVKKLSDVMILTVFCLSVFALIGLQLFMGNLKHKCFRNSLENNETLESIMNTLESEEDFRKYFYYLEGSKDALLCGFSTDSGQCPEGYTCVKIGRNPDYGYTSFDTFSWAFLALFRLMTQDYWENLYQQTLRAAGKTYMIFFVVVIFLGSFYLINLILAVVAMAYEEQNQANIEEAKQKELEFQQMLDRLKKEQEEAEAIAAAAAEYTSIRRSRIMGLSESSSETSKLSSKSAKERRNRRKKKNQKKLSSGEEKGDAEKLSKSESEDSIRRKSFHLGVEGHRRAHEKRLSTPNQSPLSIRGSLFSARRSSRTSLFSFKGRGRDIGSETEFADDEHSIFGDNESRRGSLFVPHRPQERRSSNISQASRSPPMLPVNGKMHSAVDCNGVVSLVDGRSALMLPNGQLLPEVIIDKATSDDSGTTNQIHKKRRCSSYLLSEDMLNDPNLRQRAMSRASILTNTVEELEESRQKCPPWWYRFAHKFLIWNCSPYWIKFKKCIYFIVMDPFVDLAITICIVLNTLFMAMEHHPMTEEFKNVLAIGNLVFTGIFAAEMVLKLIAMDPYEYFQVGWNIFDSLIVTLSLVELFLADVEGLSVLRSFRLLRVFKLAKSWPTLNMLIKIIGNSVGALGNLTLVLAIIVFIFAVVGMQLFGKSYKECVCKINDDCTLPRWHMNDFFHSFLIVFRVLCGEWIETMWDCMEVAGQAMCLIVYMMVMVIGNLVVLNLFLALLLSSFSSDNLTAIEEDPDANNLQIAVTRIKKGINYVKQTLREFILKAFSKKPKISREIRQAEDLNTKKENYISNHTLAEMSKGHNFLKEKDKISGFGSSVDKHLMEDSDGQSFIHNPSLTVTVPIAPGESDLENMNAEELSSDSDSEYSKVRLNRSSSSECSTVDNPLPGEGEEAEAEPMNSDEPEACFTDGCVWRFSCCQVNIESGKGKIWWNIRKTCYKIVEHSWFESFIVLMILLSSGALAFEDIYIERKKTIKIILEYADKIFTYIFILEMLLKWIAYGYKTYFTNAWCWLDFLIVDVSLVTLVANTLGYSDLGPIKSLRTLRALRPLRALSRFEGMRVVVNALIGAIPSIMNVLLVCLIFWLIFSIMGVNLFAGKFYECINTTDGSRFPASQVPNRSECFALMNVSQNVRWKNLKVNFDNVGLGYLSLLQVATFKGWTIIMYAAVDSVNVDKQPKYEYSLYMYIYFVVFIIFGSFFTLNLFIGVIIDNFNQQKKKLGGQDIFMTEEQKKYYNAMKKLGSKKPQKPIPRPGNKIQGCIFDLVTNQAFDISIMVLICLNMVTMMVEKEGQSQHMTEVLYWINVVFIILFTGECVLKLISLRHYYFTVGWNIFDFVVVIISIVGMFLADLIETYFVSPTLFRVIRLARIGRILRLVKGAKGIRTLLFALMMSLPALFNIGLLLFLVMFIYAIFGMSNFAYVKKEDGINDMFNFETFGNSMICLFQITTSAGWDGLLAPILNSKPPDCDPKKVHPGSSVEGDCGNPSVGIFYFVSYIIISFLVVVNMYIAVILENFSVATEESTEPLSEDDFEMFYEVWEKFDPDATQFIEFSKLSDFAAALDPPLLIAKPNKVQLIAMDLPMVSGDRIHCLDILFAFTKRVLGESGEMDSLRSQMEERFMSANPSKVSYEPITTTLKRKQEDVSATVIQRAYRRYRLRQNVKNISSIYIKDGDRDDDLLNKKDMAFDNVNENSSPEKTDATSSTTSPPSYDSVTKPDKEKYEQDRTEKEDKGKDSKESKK
Assay type: cell-based
Outline: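 Cells expressing full-length channel, exposed to drug by integrated pipetting on automated patch-clamp platforms or by microperfusion in conventional whole-cell patch clamp. Channels activated by a voltage protocol depolarising from a defined holding potential; buffers per platform manufacturer.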
COc1ncc(-c2cccc3c2C[C@H](NC(=O)c2ccc(OCC4COCCO4)nc2)CO3)cc1F (stereo partly drawn) [Example 166, 6-(1,4-dioxan-2-ylmethoxy)-N-[(3S)-5-(5-fluoro-6-methoxypyridin-3-yl)-3,4-dihydro-2H-chromen-3-yl]nicotinamide] was tested, and the pIC50 was 6.30. COc1ncc(-c2cccc3c2C[C@H](NC(=O)c2ccc(C(=O)NCCC(F)(F)F)nc2)CC3)cn1 [Example 167, N^5-[(2R)-8-(2-methoxypyrimidin-5-yl)-1,2,3,4-tetrahydronaphthalen-2-yl]-N^2-(3,3,3-trifluoropropyl)pyridine-2,5-dicarboxamide] was tested, and the pIC50 was 6.40. For CC#CCOc1ccc(C(=O)N[C@@H]2CCc3cccc(-c4cnc(OC)nc4)c3C2)cn1 [Example 168, 6-(but-2-yn-1-yloxy)-N-[(2R)-8-(2-methoxypyrimidin-5-yl)-1,2,3,4-tetrahydronaphthalen-2-yl]nicotinamide], the pIC50 was 5.20. In the case of O=C(N[C@@H]1COc2cccc(-c3ccc4nccn4c3)c2C1)c1ccc(OC2CCOCC2)nc1 [Example 169, N-[(3S)-5-imidazo[1,2-a]pyridin-6-yl-3,4-dihydro-2H-chromen-3-yl]-6-(tetrahydro-2H-pyran-4-yloxy)nicotinamide], the pIC50 was 6.70. COc1ncc(-c2cccc3c2C[C@H](NC(=O)c2ccc(C(=O)NC4CCC(F)(F)CC4)nc2)CO3)cn1 [Example 170, N^2-(4,4-difluorocyclohexyl)-N^5-[(3S)-5-(2-methoxypyrimidin-5-yl)-3,4-dihydro-2H-chromen-3-yl]pyridine-2,5-dicarboxamide] showed a pIC50 of 6.60. COc1ncc(-c2cccc3c2C[C@H](NC(=O)c2ccc(C(=O)NCCCC(F)(F)F)nc2)CO3)cn1 [Example 171, N^5-[(3S)-5-(2-methoxypyrimidin-5-yl)-3,4-dihydro-2H-chromen-3-yl]-N^2-(4,4,4-trifluorobutyl)pyridine-2,5-dicarboxamide] gave a pIC50 of 6.90. Work on COc1ncc(-c2cccc3c2C[C@H](NC(=O)c2ccnc(OCCOCC(F)(F)F)c2)CO3)cn1 [Example 172, N-[(3S)-5-(2-methoxypyrimidin-5-yl)-3,4-dihydro-2H-chromen-3-yl]-2-[2-(2,2,2-trifluoroethoxy)ethoxy]isonicotinamide] yielded a pIC50 of 6.70. For Cc1ncc(-c2cccc3c2C[C@H](NC(=O)c2ccc(C(=O)N(C)CC(F)(F)F)nc2)CO3)cn1 [Example 173, N^2-methyl-N^5-[(3S)-5-(2-methylpyrimidin-5-yl)-3,4-dihydro-2H-chromen-3-yl]-N^2-(2,2,2-trifluoroethyl)pyridine-2,5-dicarboxamide], the pIC50 was 5.80. CCc1ncc(-c2cccc3c2C[C@H](NC(=O)c2ccc(C(=O)NCCC(F)(F)F)nc2)CO3)cn1 [Example 174, N^5-[(3S)-5-(2-ethylpyrimidin-5-yl)-3,4-dihydro-2H-chromen-3-yl]-N^2-(3,3,3-trifluoropropyl)pyridine-2,5-dicarboxamide] gave a pIC50 of 6.70. CS(=O)(=O)c1ccc(-c2cccc3c2C[C@H](NC(=O)c2ccc(OCCOCC(F)(F)F)nc2)CO3)cn1 [Example 175, N-{(3S)-5-[6-(methylsulfonyl)pyridin-3-yl]-3,4-dihydro-2H-chromen-3-yl}-6-[2-(2,2,2-trifluoroethoxy)ethoxy]nicotinamide] was tested, and the pIC50 was 5.60. N#Cc1ccc(-c2cccc3c2C[C@H](NC(=O)c2ccc(OCCOCC(F)(F)F)nc2)CO3)cn1 [Example 176, N-[(3S)-5-(6-cyanopyridin-3-yl)-3,4-dihydro-2H-chromen-3-yl]-6-[2-(2,2,2-trifluoroethoxy)ethoxy]nicotinamide] gave a pIC50 of 6.90. O=C(N[C@@H]1COc2cccc(-c3cnc(C4CC4)nc3)c2C1)c1ccc(OCCOCC(F)(F)F)nc1 [Example 177, N-[(3S)-5-(2-cyclopropylpyrimidin-5-yl)-3,4-dihydro-2H-chromen-3-yl]-6-[2-(2,2,2-trifluoroethoxy)ethoxy]nicotinamide] was tested, and the pIC50 was 7.30. Molecule CCc1ncc(-c2cccc3c2C[C@H](NC(=O)c2ccc(OCCOCC(F)(F)F)nc2)CO3)cn1 [Example 178, N-[(3S)-5-(2-ethylpyrimidin-5-yl)-3,4-dihydro-2H-chromen-3-yl]-6-[2-(2,2,2-trifluoroethoxy)ethoxy]nicotinamide] has a pIC50 of 7.20. Molecule COc1ncc(-c2cccc3c2C[C@H](NC(=O)c2ccc(C(=O)NCCC(F)(F)F)nc2)CO3)cc1F [Example 179, N^5-[(3S)-5-(5-fluoro-6-methoxypyridin-3-yl)-3,4-dihydro-2H-chromen-3-yl]-N^2-(3,3,3-trifluoropropyl)pyridine-2,5-dicarboxamide] has a pIC50 of 6.70. In the case of COc1ncc(-c2cccc3c2C[C@H](NC(=O)c2ccc(OCCOCC(F)(F)F)nc2)CO3)cc1F [Example 180, N-[(3S)-5-(5-fluoro-6-methoxypyridin-3-yl)-3,4-dihydro-2H-chromen-3-yl]-6-[2-(2,2,2-trifluoroethoxy)ethoxy]nicotinamide], the pIC50 was 6.50. For COc1ncc(-c2cccc3c2C[C@H](NC(=O)c2ccc(S(=O)(=O)C4CCCC4)nc2)CO3)cn1 [Example 181, 6-(cyclopentylsulfonyl)-N-[(3S)-5-(2-methoxypyrimidin-5-yl)-3,4-dihydro-2H-chromen-3-yl]nicotinamide], the pIC50 was 6.30. Cc1cncc(-c2cccc3c2C[C@H](NC(=O)c2ccc(OCCOCC(F)(F)F)nc2)CO3)n1 [Example 182, N-[(3S)-5-(6-methylpyrazin-2-yl)-3,4-dihydro-2H-chromen-3-yl]-6-[2-(2,2,2-trifluoroethoxy)ethoxy]nicotinamide] gave a pIC50 of 7.20. In the case of Cc1ncc(-c2cccc3c2C[C@H](NC(=O)c2ccc(C(=O)NCCC(F)(F)F)nc2)CO3)cn1 [Example 183, N^5-[(3S)-5-(2-methylpyrimidin-5-yl)-3,4-dihydro-2H-chromen-3-yl]-N^2-(3,3,3-trifluoropropyl)pyridine-2,5-dicarboxamide], the pIC50 was 6.50. With COc1ncc(-c2cccc3c2C[C@H](NC(=O)c2ccc(OCCOC(C)C)nc2)CO3)cn1 [Example 184, 6-(2-isopropoxyethoxy)-N-[(3S)-5-(2-methoxypyrimidin-5-yl)-3,4-dihydro-2H-chromen-3-yl]nicotinamide] the pIC50 was 6.30. Molecule Cc1ncc(-c2cccc3c2C[C@H](NC(=O)c2ccc(OCCOC(C)C)nc2)CO3)cn1 [Example 185, 6-(2-isopropoxyethoxy)-N-[(3S)-5-(2-methylpyrimidin-5-yl)-3,4-dihydro-2H-chromen-3-yl]nicotinamide] has a pIC50 of 6.50. For Cc1ncc(-c2cccc3c2C[C@H](NC(=O)c2ccc(C(=O)NCCCOC(C)C)nc2)CO3)cn1 [Example 186, N^2-(3-isopropoxypropyl)-N^5-[(3S)-5-(2-methylpyrimidin-5-yl)-3,4-dihydro-2H-chromen-3-yl]pyridine-2,5-dicarboxamide], the pIC50 was 5.70. COc1ncc(-c2cccc3c2C[C@H](NC(=O)c2ccc(C(=O)NCCCOC(C)C)nc2)CO3)cn1 [Example 187, N^2-(3-isopropoxypropyl)-N^5-[(3S)-5-(2-methoxypyrimidin-5-yl)-3,4-dihydro-2H-chromen-3-yl]pyridine-2,5-dicarboxamide] was tested, and the pIC50 was 5.80. Cc1ncc(-c2cccc3c2C[C@H](NC(=O)c2ccc(C(=O)NCCCC(F)(F)F)nc2)CO3)cn1 [Example 188, N^5-[(3S)-5-(2-methylpyrimidin-5-yl)-3,4-dihydro-2H-chromen-3-yl]-N^2-(4,4,4-trifluorobutyl)pyridine-2,5-dicarboxamide] showed a pIC50 of 6.60. Cc1ncc(-c2cccc3c2C[C@H](NC(=O)c2ccc(OCCOCC(F)(F)F)nc2)CO3)cn1 [Example 189, N-[(3S)-5-(2-methylpyrimidin-5-yl)-3,4-dihydro-2H-chromen-3-yl]-6-[2-(2,2,2-trifluoroethoxy)ethoxy]nicotinamide] was tested, and the pIC50 was 7.10. Work on COc1ncc(-c2cccc3c2C[C@H](NC(=O)c2ccnc(OCCOCC(F)(F)F)c2)CC3)cn1 [Example 190, N-[(2R)-8-(2-methoxypyrimidin-5-yl)-1,2,3,4-tetrahydronaphthalen-2-yl]-2-[2-(2,2,2-trifluoroethoxy)ethoxy]isonicotinamide] yielded a pIC50 of 5.10. COc1ncc(-c2cccc3c2C[C@H](NC(=O)c2ccc(C(=O)N(C)CC(F)(F)F)nc2)CO3)cn1 [Example 191, N^5-[(3S)-5-(2-methoxypyrimidin-5-yl)-3,4-dihydro-2H-chromen-3-yl]-N^2-methyl-N^2-(2,2,2-trifluoroethyl)pyridine-2,5-dicarboxamide] showed a pIC50 of 6.10. In the case of COc1ncc(-c2cccc3c2C[C@H](NC(=O)c2ccc(C(=O)N(C)CC(F)(F)F)nc2)CO3)cc1F [Example 192, N^5-[(3S)-5-(5-fluoro-6-methoxypyridin-3-yl)-3,4-dihydro-2H-chromen-3-yl]-N^2-methyl-N^2-(2,2,2-trifluoroethyl)pyridine-2,5-dicarboxamide], the pIC50 was 6.20. For COc1ncc(-c2cccc3c2C[C@H](NC(=O)c2ccc(COCC(F)(F)F)nc2)CO3)cc1F [Example 193, N-[(3S)-5-(5-fluoro-6-methoxypyridin-3-yl)-3,4-dihydro-2H-chromen-3-yl]-6-[(2,2,2-trifluoroethoxy)methyl]nicotinamide], the pIC50 was 6.80. COc1ncc(-c2cccc3c2C[C@H](NC(=O)c2ccc(COCC(F)(F)F)nc2)CO3)cn1 [Example 194, N-[(3S)-5-(2-methoxypyrimidin-5-yl)-3,4-dihydro-2H-chromen-3-yl]-6-[(2,2,2-trifluoroethoxy)methyl]nicotinamide] showed a pIC50 of 6.70. COc1ncc(-c2cccc3c2C[C@H](NC(=O)c2cnc(NCCC(F)(F)F)nc2)CO3)cn1 [Example 195, N-[(3S)-5-(2-methoxypyrimidin-5-yl)-3,4-dihydro-2H-chromen-3-yl]-2-[(3,3,3-trifluoropropyl)amino]pyrimidine-5-carboxamide] gave a pIC50 of 6.40. For CN(CC(F)(F)F)C(=O)c1ccc(C(=O)N[C@@H]2COc3cccc(-c4cnc(C5CC5)nc4)c3C2)cn1 [Example 196, N^5-[(3S)-5-(2-cyclopropylpyrimidin-5-yl)-3,4-dihydro-2H-chromen-3-yl]-N^2-methyl-N^2-(2,2,2-trifluoroethyl)pyridine-2,5-dicarboxamide], the pIC50 was 6.30.
